# Reference: US20080139620A1, “Pyrazole Derivatives For The Inhibition Of Cdk's And Gsk's” (ASTEX THERAPEUTICS LIMITED, priority 2005, published 2008)
# How the values were obtained:
# Activated CDK2/CyclinA = Activated CDK2/CyclinA (Homo sapiens, UniProt P24941); experiment: Activated CDK2/CyclinA kinase inhibitory activity assay; assay type: biochemical
# Method: Compounds of the invention were tested for kinase inhibitory activity using the following protocol.
# The reaction is allowed to proceed for 2 to 4 hours before being stopped with an excess of ortho-phosphoric acid (5 μl at 2%). γ^33P-ATP which remains unincorporated into the histone H1 is separated from phosphorylated histone H1 on a Millipore MAPH filter plate. The wells of the MAPH plate are wetted with 0.5% orthophosphoric acid, and then the results of the reaction are filtered with a Millipore vacuum filtration unit through the wells. Following filtration, the residue is washed twice with 200 μl of 0.5% orthophosphoric acid. Once the filters have dried, 20 μl of Microscint 20 scintillant is added, and then counted on a Packard Topcount for 30 seconds.
# HCT-116 cell line = experiment: Anti-proliferative activity, Alamar Blue assay; assay type: cell-based, human; details: for IC50: HCT-116 human colon carcinoma, 72 hours, read-out: HCT-116 cell proliferation IC50
# Method: The anti-proliferative activities of compounds of the invention can be determined by measuring the ability of the compounds to inhibition of cell growth in a number of cell lines. […] The method is based on the ability of viable cells to reduce resazurin to its fluorescent product resorufin. For each proliferation assay cells are plated onto 96 well plates and allowed to recover for 16 hours prior to the addition of inhibitor compounds for a further 72 hours. […] In the case of the non-proliferating cell assay cells are maintained at confluence for 96 hour prior to the addition of inhibitor compounds for a further 72 hours. The number of viable cells is determined by Alamar Blue assay as before. Cell lines can be obtained from the ECACC (European Collection of cell Cultures).
# [1] = Determination of oral bioavailability; assay type: in vivo; details: BALB/c, mouse, plasma, mice, 5 mg/kg PO vs 1 mg/kg IV
# Method: The oral bioavailability of the compounds of formula (I) may be determined as follows.
# The test compound is administered as a solution both I.V. and orally to balb/c mice at the following dose level and dose formulations; • 1 mg/kg IV formulated in 10% DMSO/90% (2-hydroxypropyl)-β-cyclodextrin (25% w/v); and • 5 mg/kg PO formulated in 10% DMSO/20% water/70% PEG200.
# At various time points after dosing, blood samples are taken in heparinised tubes and the plasma fraction is collected for analysis. The analysis is undertaken by LC-MS/MS after protein precipitation and the samples are quantified by comparison with a standard calibration line constructed for the test compound. The area under the curve (AUC) is calculated from the plasma level vs time profile by standard methods. The oral bioavailability as a percentage is calculated from the following equation: […]
# [2] = test system: human tumour derived cell lines; experiment: Xenograft studies, human tumour derived cell lines implanted sub-cutaneously; assay type: in vivo, nude mice; details: dosed orally
# Text: These biomarkers include suppression of phosphorylation of substrates of the cyclin dependent kinases e.g. retinoblastoma protein.
# GSK3-β = molecular target: T1, GSK3-β (Homo sapiens, UniProt P49841); experiment: GSK3-B kinase inhibitory activity assay; assay type: biochemical; details: read-out: GSK3β IC50
# T1 construct: purchased Upstate Discovery
# T1 sequence (P49841 whole entry): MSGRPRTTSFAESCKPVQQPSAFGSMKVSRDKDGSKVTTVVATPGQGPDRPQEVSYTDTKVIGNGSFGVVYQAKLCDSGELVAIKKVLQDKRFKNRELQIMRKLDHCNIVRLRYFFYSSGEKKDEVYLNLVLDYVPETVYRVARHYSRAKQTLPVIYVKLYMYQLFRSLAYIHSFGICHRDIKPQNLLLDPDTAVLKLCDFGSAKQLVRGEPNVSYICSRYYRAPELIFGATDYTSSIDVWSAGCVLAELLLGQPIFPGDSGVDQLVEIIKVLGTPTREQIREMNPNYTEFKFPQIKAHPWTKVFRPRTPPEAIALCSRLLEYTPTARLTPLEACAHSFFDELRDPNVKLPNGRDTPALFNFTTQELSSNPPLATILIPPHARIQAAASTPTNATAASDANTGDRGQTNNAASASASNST
# Method: The reaction is allowed to proceed for 3 hours (GSK3-β) before being stopped with an excess of ortho-phosphoric acid (5 μl at 2%). The filtration procedure is as for Activated CDK2/CyclinA assay above.
IC50 (Activated CDK2/CyclinA) [nM],selectivity for CDK inhibition over GSK3β (Activated CDK2/CyclinA) [fold],IC50 (GSK3-β) [nM],Compound,in vitro kinase (CDK2) inhibitory activity compared to difluoro-analogue (Activated CDK2/CyclinA),IC50 (HCT-116 cell line) [nM],anti-proliferative potency on HCT-116 compared to difluoro-analogue (HCT-116 cell line; human colon cancer HCT-116 cell line),bioavailability [1] [%],tumour biomarkers (phosphorylation of CDK substrates e.g. retinoblastoma protein) ([2]; nude mice xenografts),"tumour growth in xenografts ([2]; nude mice, sub-cutaneous xenografts)"
–,–,–,"CS(=O)(=O)N1CCC(NC(=O)c2n[nH]cc2NC(=O)c2c(Cl)cccc2Cl)CC1 [Example 1, 4-(2,6-dichloro-benzoylamino)-1H-pyrazole-3-carboxylic acid (1-methanesulphonyl-piperidin-4-yl)-amide]",greater in vitro kinase (CDK2) inhibitory activity,110,6-7 fold,40 to 50,inhibition of the tumour biomarkers,inhibition of tumour growth
2.2,~6,14,CS(=O)(=O)N1CCC(NC(=O)c2n[nH]cc2NC(=O)c2c(F)cccc2F)CC1 [Example 131 of PCT/GB2004/003179],–,740,–,–,–,–
